# In article PMC10137179, “Assessment of Covalently Binding Warhead Compounds in the Validation of the Cytomegalovirus Nuclear Egress Complex as an Antiviral Target” (Cells, 2023):
# How the values were obtained:
# Assay type in all cases: cell-based
# Conditions in all cases: 4 µM, 3 d p.t.
# [1] = target: T1, HCMV pUL50-HA + pUL53-Flag (Human cytomegalovirus, UniProt P16791); assay: Confocal imaging of core NEC localization in cotransfected HeLa cells, HCMV
# T1 construct: expressed in transfected cells; host or cells: HeLa
# T1 sequence (P16791 whole entry): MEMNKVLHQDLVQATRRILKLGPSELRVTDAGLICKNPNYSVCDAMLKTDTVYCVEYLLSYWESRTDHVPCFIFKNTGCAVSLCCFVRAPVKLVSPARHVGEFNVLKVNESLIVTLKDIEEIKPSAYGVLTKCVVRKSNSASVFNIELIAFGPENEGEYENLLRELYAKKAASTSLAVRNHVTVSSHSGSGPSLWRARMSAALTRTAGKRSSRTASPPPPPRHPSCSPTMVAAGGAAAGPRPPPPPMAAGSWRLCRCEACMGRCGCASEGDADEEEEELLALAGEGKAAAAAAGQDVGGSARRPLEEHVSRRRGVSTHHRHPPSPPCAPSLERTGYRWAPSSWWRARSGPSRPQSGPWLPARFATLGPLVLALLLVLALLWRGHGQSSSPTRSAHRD
# Protocol: (§1) HFF or HFF-UL50 cells, either Dox-induced or uninduced, were seeded in 6-well plates with a density of 2 × 10^5 cells per well, grown on coverslips and infected with HCMV AD169 or AD169 ∆UL50-ΣUL53. For infection experiments with the recombinant virus, different Shield-1 and Dox conditions were analyzed. Antivirals were added post-infection as described for the experiments. For transfection experiments, HeLa cells were seeded on coverslips in 6-well plates with a density of 3.25 × 10^5 cells per well for cotransfection with the indicated NEC expression plasmids (HSV-1 HA-UL34 + Flag-UL31, HCMV pUL50-HA + pUL53-Flag and EBV HA-BFRF1 + Flag-BFLF2). At indicated time points after virus infection, or 3 days post-transfection, cells were fixed, applied for IF staining as described previously and analyzed using a TCS SP5 confocal laser-scanning microscope with Leica LAS AF software (Leica Microsystems, Wetzlar, Germany). […] The device features a Leica photomultiplier tube (PMT) and a hybrid detector (HyD). Images were further processed using Photoshop CS5 (Adobe Inc., San José, CA, USA). […] Microscopic counting was performed for quantitation of colocalization patterns of two different proteins, as achieved by counting 50 cells per biological triplicate. […]
# [2] = target: T2, HSV-1 HA-UL34 + Flag-UL31 (Human herpesvirus 1, UniProt P10215+P10218); assay: Confocal imaging of core NEC localization in cotransfected HeLa cells, HSV-1
# T2 construct: expressed in transfected cells; host or cells: HeLa
# T2 sequence (P10215 whole entry): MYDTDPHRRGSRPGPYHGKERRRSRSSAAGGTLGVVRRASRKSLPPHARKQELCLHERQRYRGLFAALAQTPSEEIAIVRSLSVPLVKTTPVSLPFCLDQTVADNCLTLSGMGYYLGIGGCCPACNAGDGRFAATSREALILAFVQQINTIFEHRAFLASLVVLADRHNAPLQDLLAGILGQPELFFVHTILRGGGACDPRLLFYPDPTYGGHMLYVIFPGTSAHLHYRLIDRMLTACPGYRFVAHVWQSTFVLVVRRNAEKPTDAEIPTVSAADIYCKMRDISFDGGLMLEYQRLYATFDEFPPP
# T2 sequence (P10218 whole entry): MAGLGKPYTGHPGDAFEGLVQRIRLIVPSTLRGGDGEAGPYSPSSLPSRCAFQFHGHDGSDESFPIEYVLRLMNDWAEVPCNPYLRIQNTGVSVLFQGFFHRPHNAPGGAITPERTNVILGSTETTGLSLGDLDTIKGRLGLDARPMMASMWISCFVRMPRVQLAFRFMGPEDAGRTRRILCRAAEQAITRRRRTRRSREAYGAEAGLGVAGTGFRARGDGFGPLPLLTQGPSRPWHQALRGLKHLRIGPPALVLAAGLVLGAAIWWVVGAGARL
# Protocol: as §1
# [3] = target: T3, EBV HA-BFRF1 + Flag-BFLF2 (Epstein-Barr virus, UniProt P03185+P0CK47); assay: Confocal imaging of core NEC localization in cotransfected HeLa cells, EBV
# T3 construct: expressed in transfected cells; host or cells: HeLa
# T3 sequence (P03185 whole entry): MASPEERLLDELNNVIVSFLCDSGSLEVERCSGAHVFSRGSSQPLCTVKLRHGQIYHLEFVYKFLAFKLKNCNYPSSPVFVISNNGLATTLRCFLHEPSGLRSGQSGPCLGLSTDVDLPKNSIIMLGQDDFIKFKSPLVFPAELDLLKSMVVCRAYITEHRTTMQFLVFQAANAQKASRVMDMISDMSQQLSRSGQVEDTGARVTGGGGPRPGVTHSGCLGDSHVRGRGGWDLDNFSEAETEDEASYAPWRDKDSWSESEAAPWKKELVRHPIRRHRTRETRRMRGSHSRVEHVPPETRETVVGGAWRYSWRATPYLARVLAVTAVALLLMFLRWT
# T3 sequence (P0CK47 whole entry): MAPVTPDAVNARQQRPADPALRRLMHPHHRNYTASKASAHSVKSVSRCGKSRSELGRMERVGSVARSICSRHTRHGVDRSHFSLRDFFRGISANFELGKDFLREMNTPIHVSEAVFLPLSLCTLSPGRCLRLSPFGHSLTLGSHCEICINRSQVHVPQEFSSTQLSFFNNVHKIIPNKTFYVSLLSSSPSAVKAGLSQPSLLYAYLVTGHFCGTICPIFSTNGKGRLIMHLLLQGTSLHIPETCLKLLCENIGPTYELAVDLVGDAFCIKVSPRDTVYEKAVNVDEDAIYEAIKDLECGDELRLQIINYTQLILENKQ
# Protocol: as §1
smiles,measurement,setting,value
C=CC(=O)N1CCC[C@@H](n2nc(-c3ccc(Oc4ccccc4)cc3)c3c(N)ncnc32)C1 [ibrutinib],core NEC nuclear rim localization (in words),[1],predominant dot-like aggregation and speckle formation
same,core NEC nuclear rim localization (in words),[2],did not show any similar alteration in nuclear rim localization
same,core NEC nuclear rim localization (in words),[3],did not show any similar alteration in nuclear rim localization
